These results are taken from patent US10391168B1, “Anti-CD70 combination therapy” (University of Bern, priority 2014, dated 2019).

One experiment concerns KBM5r cells. As to the kind of experiment: miR-29 expression and anti-miR silencing in KBM5r cells (qRT-PCR). It is filed as cell-based, human. Conditions: imatinib 1 μM, nilotinib 1 μM, ponatinib 0.1 μM; 72 h. (In general: Real-time PCR tracks product formation cycle by cycle.)
Experiment [1] deals with CD70 promoter in KBM5r cells. The experiment in a line: DNA methylation analysis of the CD70 promoter by bisulfite sequencing. It counts as cell-based, human. Conditions: ponatinib 0.1 μM or azacytidine 1 μM, vs vehicle. How it is done:
The methylation profile of the SP1 transcription factor binding sites within the KBM5r cell CD70 promoter was analyzed by bisulfite sequencing after treatment of KBM5r cells with either a control, ponatinib (0.1 μM) or azacytidine (1 μM).
Bisulfite conversion of the isolated DNA samples from both KBM5 and KBM5r cells were assessed using the Epitect® Bisulfite Kit (Qiagen) according to the manufacturer's protocol. The promoter region covering binding sites for important transcription factors were selectively amplified using the following primers: forward primer (−227˜−205): 5′-[…]-3′ (SEQ ID NO.: 9); reverse primer (+14˜+35): 5′-[…]-3′(SEQ ID NO.: 10). For the amplification of bisulfite-treated genomic DNA (gDNA), the following PCR conditions were used: 1×: 95° C. for 10 min; 40×: 95° C. for 30 s, 58° C. for 40 s, 72° C. for 1 min; 1×72° C. for 5 min. The PCR cocktail was: 3 μl of DNA (of at least 10 ng/μL DNA for a final concentration of […]) in a 25 μl total volume using 0.5 pmol of each primer, 200 μM dNTPs, 0.2 U Hot Start Taq DNA polymerase, 1.5 mM MgCl2 and the buffer supplied with the enzyme. The amplified promoter region were gel-purified and subjected for fluorescent Sanger sequencing. The relative quantification of the methylated allele (C) versus unmethylated allele (T) was assessed by the QSVAnalyser software. […]

For experiment [2], the system named is imatinib-resistant KBM5r cells (BCR-ABL1 T315I). As to the kind of experiment: CD70, SP1, DNMT1 expression and viability in imatinib-resistant KBM5r cells. It counts as cell-based, human. How it is done: Specifically, 5×10^4 KBM5r cells were transduced overnight at 37° C. and 5% CO2 with 2×10^5 infectious units of shSP1 or the respective control lentiviral particles having scrambled RNA (Santa Cruz Biotechnology Inc.) in the presence of 5 μg/ml polybrene (Sigma-Aldrich) according to the manufacturer's instructions. After 18 hours, medium was removed, and cells were cultured in medium supplemented with 1 μg/ml puromycin to select for stable expression of shSP1 or scrambled RNA.
KBM5r cells (1×10^5) stably transduced with shSP1 (shSP1), or the respective control scrambled RNA lentiviral particles (scr), were then cultured for 72 hours in the presence of vehicle or ponatinib (po; 0.1 μM). Treated cells were tested for MFI of CD70 protein expression (FACS) (FIG. 1, q), CD70 (FIG. 1, r) and SP1 (Figure, 1 s) mRNA expression (qRT-PCR).
In a first experiment, 1×10^5 KBM5r cells were cultured in the presence of vehicle, ponatinib (po, 0.1 μM), lithium chloride (li, […]), or both in combination (po/li) for 24 h (FIG. 2, A-C). In a second experiment, 1×10^5 KBM5r cells were cultured in the presence of vehicle, ponatinib (po, 0.1 μM), R-Spondin 1 (R, 10 ng/ml), or both in combination (po/R) for 72 h (FIG. 2, D-E).

Another experiment has as its system β-catenin. To be noted: cited from earlier work.
The subject of the next experiment is DLD-1-cancer cells. To be noted: colorectal adenocarcinoma derived; cited from earlier work.
The next experiment has as its system colon carcinoma cells. To be noted: cited from earlier work.
Experiment [3] relates to conditional APC mutant mice. Conditions: mouse, in vivo; cited from earlier work.
The subject of a further experiment is Xenopus embryos. Conditions: in vivo; cited from earlier work.
Experiment [4] deals with pancreatic tumor-initiating cells. Conditions: cited from earlier work.
Experiment [5] concerns xenograft models of breast, lung, pancreatic, and colon cancer. Conditions: in vivo; cited from earlier work.
[6] abbreviates: 72 h, imatinib 1 μM, ponatinib 0.1 μM.

In the case of `Cc1ccc(C(=O)Nc2ccc(CN3CCN(C)CC3)c(C(F)(F)F)c2)cc1C#Cc1cnc2cccnn12` [ponatinib], in the experiment on KBM5r cells, the “miR-29a, miR-29b, miR-29c expression” value is given as “down-regulation of all three miR-29s”. Besides, the “CD70 promoter DNA methylation” value in experiment [1] is on record as “significantly reduced CD70 promoter DNA methylation”. Also, in experiment [2] (setting [6]), the “CD70 mRNA expression” value is on record as “induced”, the “Dnmt 1 mRNA expression” value is listed as “down-regulated Dnmt1 mRNA” and the “SP1 mRNA expression” value is “up-regulated SP1”. Also, in [2] (72 h, therapeutic concentration (imatinib 1 μM, ponatinib 0.1 μM)), the “CD70 protein expression (FACS)” value is given as “induced CD70 protein expression”. Moreover, in experiment [2] (ponatinib 0.1 μM, 16 h), the “CD70 protein expression (MFI) early after treatment” value was “already up-regulated after 16 hours” and the “cell death (Annexin-V/7-AAD FACS)” value is recorded as “did not induce substantial cell death”. Moreover, the “CD70 expression in SP1 knockdown (shSP1) KBM5r cells” value in experiment [2] (ponatinib 0.1 μM, 72 h, vs scrambled control RNA cells) was “did not up-regulate CD70”.

Turning to `O=c1nc(-c2ccc(C(F)(F)F)cc2)[nH]c2c1CSCC2` [XAV939], the “WNT-stimulated accumulation of β-catenin” value in the experiment with β-catenin was “blocks WNT-stimulated accumulation of β-catenin”. Besides, the “growth of DLD-1 cancer cells” value in the experiment on DLD-1-cancer cells was “inhibits growth”.

As for `COc1ccc(C2(CNC(=O)c3ccc(NC(=O)c4ccco4)cc3)CCOCC2)cc1` [JW55, N-(4-(((4-(4-methoxyphenyl)tetrahydro-2H-pyran-4-yl)methyl)carbamoyl)phenyl)furan-2-carboxamide], in the experiment with colon carcinoma cells (cells with mutations in APC locus or an allele of β-catenin), the “canonical WNT signaling” value is “inhibited canonical WNT signaling”. In addition, in the experiment on colon carcinoma cells, the “AXIN2 and β-catenin levels” value is reported as “stabilization of AXIN2, a member of the β-catenin destruction complex, followed by increased degradation of β-catenin”. Also, the tamoxifen-induced polyposis formation entry in experiment [3] was “reduced”. Further, the XWNT8-induced axis duplication result in the experiment on Xenopus embryos is “reduced XWNT8-induced axis duplication”.

Consider `[Cl-].[Li+]` [lithium chloride], for which the “TKI-mediated changes in CD70, SP1, DNMT1 mRNA expression” value in experiment [2] (lithium chloride 10 μM with ponatinib 0.1 μM, 24 h) is “restored TKI-mediated changes in gene expression”.

On to `Cc1cn(-c2cc(NC(=O)c3ccc(C)c(Nc4nccc(-c5cccnc5)n4)c3)cc(C(F)(F)F)c2)cn1` [nilotinib], for which the “miR-29a, miR-29b, miR-29c expression” value in the experiment on KBM5r cells is given as “did not affect miR-29s”.

B1: R-Spondin 1: specific Wnt activator (protein, UniProt Q2MKA7 21-263, looked up)
R-spondin-1: SRGIKGKRQRRISAEGSQACAKGCELCSEVNGCLKCSPKLFILLERNDIRQVGVCLPSCPPGYFDARNPDMNKCIKCKIEHCEACFSHNFCTKCKEGLYLHKGRCYPACPEGSSAANGTMECSSPAQCEMSEWSPWGPCSKKQQLCGFRRGSEERTRRVLHAPVGDHAACSDTKETRRCTVRRVPCPEGQKRRKGGQGRRENANRNLARKESKEAGAGSRRRKGQQQQQQQGTVGPLTSAGPA
Regarding B1, the “TKI-mediated changes in CD70, SP1, DNMT1 mRNA expression” value in experiment [2] (R-Spondin 1 10 ng/ml with ponatinib 0.1 μM, 72 h) is reported as “restored TKI-mediated changes in gene expression”.

B2: OMP-18R5: monoclonal antibody that targets the Frizzled receptors to block association with WNT ligands (antibody, chains of the INN, looked up, V domains shown)
VH: EVQLVESGGGLVQPGGSLRLSCAASGFTFSHYTLSWVRQAPGKGLEWVSVISGDGSYTYYADSVKGRFTISSDNSKNTLYLQMNSLRAEDTAVYYCARNFIKYVFANWGQGTLVTVSS
VL: DIELTQPPSVSVAPGQTARISCSGDNIGSFYVHWYQQKPGQAPVLVIYDKSNRPSGIPERFSGSNSGNTATLTISGTQAEDEADYYCQSYANTLSLVFGGGTKLTVL
Take B2: the “capabilities of pancreatic tumor-initiating cells” value in experiment [4] is on record as “potently block the capabilities of pancreatic tumor-initiating cells”. In addition, in experiment [5], the “interaction with standard-of-care treatment” value was “synergized with standard-of-care treatment” and the tumor growth result is “significant inhibition of tumor growth”.
